Measured values from patent publication US9511074B2, “Methods of treating disorders associated with protein polymerization” (UNIVERSITY OF PITTSBURGH—OF THE COMMONWEALTH SYSTEM OF …, priority 2009, dated 2016).

What was measured:
[1] = system: APP-PS1 mouse; experiment: Plaque load and Aβ ELISA in APP-PS1 mouse model of AD; format: in vivo; settings: APP-PS1 mice, 200 mg/kg/day gavage, 5 doses per wk, 3 wks
Description: The APP-PS1 mouse model of AD is associated with accelerated amyloid deposition with plaques resembling AD in humans starting to appear at 12 weeks of age (12) and progressive behavioral changes starting at 6 months of age (55, 56). Only a limited number of mice were available at the ideal age, 9 wks, at the time of the study, so the pilot study was very small. 9-12 wks of age was selected as the ideal age because it represents the age with the earliest consistent appearance of AP deposition in APP-PS1 mice. Mice were treated by orogastric gavage with CBZ 200 mg/kg/day, 5 doses per wk, for 3 wks; n=2 for CBZ and n=4 for vehicle (DMSO). Brain sections were stained with X-34, antibodies to Aβ1-40 and Aβ1-42 to determine plaque load using techniques as described previously (57).

[2] = system: ATZ in Atg5 deficient cell line; experiment: ATZ levels in autophagy-deficient (Atg5-/-) MEF cell line; format: cell-based, murine; settings: Atg5-deficient cells
Description: (§1) Cell Lines The human epidermal HeLa cell line with doxycycline-regulated expression of ATZ (HTO/Z) has been described previously (1). HTO/M and HTO/Saar are HeLa cell lines with doxycycline-regulated expression of wild type AT and the AT Saar variant, respectively (1). A murine embryonic fibroblast cell line (MEF) with targeted disruption of Atg5 (2) was engineered for stable expression of ATZ using the previously described pRc/RSV-ATZ expression plasmid (3). A wild type MEF cell line was also engineered for stable expression of ATZ in the same way to serve as control. For experiments with CBZ, the inducible cell lines were cultured in the absence of doxycycline for at least 4 weeks for maximal expression of AT. The cells were then subcultured into separate monolayers in fresh complete growth medium and incubated for 48 hours in the absence or presence of CBZ or rapamycin (RAP). CBZ or RAP were added to the growth medium. The duration of incubation with CBZ was determined to be optimal at 48 hours based on experiments in which the duration was varied from 12 to 72 hours. Doses of CBZ were based on previous studies of its effects in cell lines (5,6). […]
(§2) For immunoblot analysis to detect AT, GAPDH or LC3, cells were lysed in 50 mM Tris-HCl, 150 mM NaCl, 1% NP-40, pH 8.0. Protein levels were quantified using the BCA protein assay (Pierce Biotechnology, Rockford, Ill.). […]

[3] = system: AT Saar in the HTO/Saar cell line; experiment: Levels of AT Saar variant in the HTO/Saar cell line; format: cell-based, human; settings: FIG. 3D
Description: as §1, §2

[4] = system: human AT; experiment: Serum levels of human ATZ in PiZ mice by ELISA; format: in vivo, mouse; settings: CBZ 250 mg/kg/day for 2 weeks
Method: For ELISA on mouse serum specimens, Nunc Maxisorp plates were first coated with goat anti-human AT (Bethyl), then blocked in PBS-Tween20 containing 5% nonfat milk. Serum samples were loaded into the wells in 1:20,000 dilution using purified human AT serial dilutions (1.56 to 100 ng/ml) as a standard. Rabbit-anti human AT (Dako) was used as […], and goat anti-rabbit IgG-HRP (Dako) a secondary antibody. Protein levels were detected with OPD (Sigma).

[5] = system: LC3; experiment: LC3 conversion in the HTO/Z cell line by immunoblot; format: cell-based, human; settings: with or without lysosomal enzyme inhibitors
Method: For experiments in which proteasomal inhibitors were used, MG132 was used at 30 μM and lactacystin at 10 μM for the last 6 hours of the incubation with CBZ or control. Cells that were incubated with MG132 or lactacystin alone served as control to validate that the proteasome was inhibited. For investigation of LC3 conversion, lysosomal inhibitors (E64D and pepstatin A at 20 μg/ml) were added to the medium for the last 4 hours of the incubation with CBZ or control. […] If the number of separate experiments done in the cell line models is not specifically indicated in the text or figure legend, at least 3 separate experiments were done in each case.
For immunoblot analysis to detect AT, GAPDH or LC3, cells were lysed in 50 mM Tris-HCl, 150 mM NaCl, 1% NP-40, pH 8.0. Protein levels were quantified using the BCA protein assay (Pierce Biotechnology, Rockford, Ill.). 10-50 μg samples were loaded onto 7.5% precast gels. PVDF membranes were blocked in TBS, 0.5% Tween 20 (TBST), 5% milk and then incubated with primary antibody in 5% milk TBST solution. Horseradish peroxidase anti-goat Ig or anti-mouse Ig (Jackson Labs, Bar Harbor, Me.) were used as secondary antibodies in TBST. Blots were visualized with Super Signal West Dura or West Femto from Pierce.

[6] = system: PiZ×IKKbDhep mouse; experiment: Hepatic hydroxyproline in PiZ×IKKbDhep mouse model; format: in vivo; settings: FIG. 7
Description: Transgenic Mice PiZ mice that have been bred into the C57/BL6 background have been described previously (1). For the second and third series of experiments with CBZ we used PiZ mice that were re-derived onto the FVB/N background for a move into a new animal facility. The transgene that was used to generate the PiZ mouse is a genomic fragment of DNA that contains the coding regions of the ATZ gene together with introns and ˜2 kilobases of upstream and downstream flanking regions (10). […] In this perspective it is not an exact phenocopy of the classical form of AT deficiency. In particular it cannot be a model for the loss-of-function mechanisms associated with the classical form of AT deficiency. […]
Histology Sections of liver tissue were stained with hematoxylin and eosin, PAS, PAS after diastase treatment, TUNEL, PCNA, Ki67 and Sirius Red using standard techniques (18). […] The number of inflammatory nodules, AT-containing globules and autophagosomes were each quantified blindly by counting cells in 6 microscopic fields of 10 different sections for each liver. The number of nuclei, as determined by Hoechst staining, was used to exclude the possibility that different numbers of cells were counted in liver sections from mice treated with CBZ as compared to controls. Hepatic hydroxyproline concentration was determined by a well-established protocol (20,21).

With `NC(=O)N1c2ccccc2C=Cc2ccccc21` [CBZ, 5H-dibenz [b,f]azepine-5-carboxamide] the “soluble and insoluble Aβ1-40 and Aβ1-42 by ELISA” value [1] was “trend toward lower values”, the “plaque load (X-34, anti-Aβ1-40, anti-Aβ1-42 staining)” value ([1]; n=2) was “marked reduction” and the “levels of soluble ATZ” value [2] was “decrease”. For the same molecule, the “levels of AT Saar (soluble fraction)” value [3] was “degraded by CBZ in a manner almost identical to that of ATZ”, the “serum concentrations of human AT” value [4] was “not significantly affected” and the “LC3-II to LC3-I ratio” value [5] was “increased in a dose-dependent manner”. For the same molecule, the hepatic hydroxyproline concentration [6] was “decrease”.
